Where a name gives a salt, the structure may show the parent alone.
Legend:
FXN mRNA [1] = assay: Screen of library of eighty epigenetic inhibitors in GM03816 FRDA diseased fibroblasts, FXN mRNA fold change; type: cell-based, human; settings: for fold induction at 1 µM / fold induction at 5 µM: Homo sapiens, Fibroblast, 72 h; for fold induction at 1 µM: read-out: 3816 1 uM (FXN mRNA fold change); for fold induction at 5 µM: read-out: 3816 5 uM (FXN mRNA fold change)
Description: FXN RNA levels are indicated on the y-axis and the inhibitors used at both 1 μM and 5 μM are shown on the x-axis.
A screen of a library of eighty epigenetic inhibitors (Cayman Chemical) was performed in GM03816 FRDA fibroblasts to identify epigenetic regulators that upregulate FXN expression.

FXN mRNA [2] = assay: Screen of epigenetic inhibitors in GM0321 normal fibroblasts, FXN RNA levels; type: cell-based, human; settings: for fold induction at 1 µM / fold induction at 5 µM: Homo sapiens, Fibroblast, 72 h; for fold induction at 1 µM: read-out: FXN mRNA fold change, 321B 1 uM; for fold induction at 5 µM: read-out: FXN mRNA fold change, 321B 5 uM
[3] = GM03816 FRDA diseased fibroblasts, 1 uM inhibitor, 3 days of treatment
[4] = GM03816 FRDA diseased fibroblasts, 5 uM inhibitor, 3 days of treatment
[5] = GM0321 normal fibroblasts, 1 uM inhibitor, 3 days of treatment
[6] = GM0321 normal fibroblasts, 5 uM inhibitor, 3 days of treatment

Molecule | 3816 1 uM (FXN mRNA fold change) (FXN mRNA [1]; [3]) | 3816 5 uM (FXN mRNA fold change) (FXN mRNA [1]; [4]) | FXN mRNA fold change, 321B 1 uM (FXN mRNA [2]; [5]) | FXN mRNA fold change, 321B 5 uM (FXN mRNA [2]; [6]) | other results
O=C(O)CCNc1cc(N2CCc3ccccc3CC2)nc(-c2ccccn2)n1 [GSK-J1 (sodium salt)] | 0.8866 | 0.7892 | 0.9779 | 0.9423 | –
(3S,3′S,5aR,5aR,10bR,10′bR,11aS,11′aS)- 2,2′,3,3′,5a,5′a,6,6′-octahydro- 3,3′-bis(hydroxymethyl)-2,2′- dimethyl-[10b,10′b(11H,11′H)- bi3,11a-epidithio-11aH- pyrazino[1′,2′:1,5]pyrrolo[2,3- b]indole]-1,1′4,4′-tetrone [Chaetocin, reference compound] | 0.9302 | 0.7778 | 0.9084 | 0.9952 | –
O=C(O)CCNc1cc(N2CCc3ccccc3CC2)nc(-c2cccnc2)n1 [GSK-J2 (sodium salt)] | 0.9711 | 0.9938 | 1.063 | – | –
O=C(O)c1ccnc(C(=O)O)c1 [2,4-Pyridinedicarboxylic Acid] | – | – | – | – | fold induction at 1 µM (FXN mRNA [1]; [3]): 0.885; fold induction at 5 µM (FXN mRNA [1]; [4]): 0.888; fold induction at 1 µM (FXN mRNA [2]; [5]): 0.458; fold induction at 5 µM (FXN mRNA [2]; [6]): 0.645
Nc1ncn([C@H]2C[C@H](O)[C@@H](CO)O2)c(=O)n1 [Decitabine] | – | – | – | – | fold induction at 1 µM (FXN mRNA [2]; [5]): 1.15; fold induction at 5 µM (FXN mRNA [2]; [6]): 1.53
Cc1ccc(C(=O)Nc2ccc(S(=O)(=O)O)c3cc(S(=O)(=O)O)cc(S(=O)(=O)O)c23)cc1NC(=O)c1cccc(NC(=O)Nc2cccc(C(=O)Nc3cc(C(=O)Nc4ccc(S(=O)(=O)O)c5cc(S(=O)(=O)O)cc(S(=O)(=O)O)c45)ccc3C)c2)c1 [Suramin] | – | – | – | – | fold induction at 1 µM (FXN mRNA [1]): 0.954; fold induction at 5 µM (FXN mRNA [1]): 0.835; fold induction at 5 µM (FXN mRNA [2]): 0.772
COc1ccc(Cn2ccc3ccc(C(=O)NO)cc32)cc1 [PCI 34051] | 1.084 | 1.209 | 0.9743 | 1.306 | –
O=C(Nc1ccc(Cl)cc1)C1CCCN(C(=O)c2cc(C(F)(F)F)cc(C(F)(F)F)c2)C1 (centres unmarked) [CCG-100602] | 1.147 | 1.213 | 0.8325 | 0.9592 | –
O=c1oc2c(O)c(O)cc3c(=O)oc4c(O)c(O)cc1c4c23 [Ellagic Acid] | – | – | – | – | fold induction at 1 µM (FXN mRNA [1]; [3]): 0.788; fold induction at 5 µM (FXN mRNA [1]; [4]): 0.189; fold induction at 1 µM (FXN mRNA [2]; [5]): 0.675; fold induction at 5 µM (FXN mRNA [2]; [6]): 0.248
CN1CCc2c(c3ccccc3n2Cc2ccc(C(=O)NO)cc2)C1 [Tubastatin A] | 0.9276 | 0.9192 | 0.8993 | 1.038 | –
CCCCCOc1ccc(/C=C\c2cccc(O)c2C(=O)O)cc1 [CAY10669] | 0.8709 | 1.074 | 0.7796 | 0.3094 | –
NC(=O)c1cccnc1 [Nicotinamide] | – | – | – | – | fold induction at 1 µM (FXN mRNA [1]; [3]): 0.852; fold induction at 5 µM (FXN mRNA [1]; [4]): 0.775; fold induction at 1 µM (FXN mRNA [2]; [5]): 0.687; fold induction at 5 µM (FXN mRNA [2]; [6]): 0.702
N=C1NC(=O)/C(=C/c2ccc(O)cc2)S1 [Mirin] | – | – | – | – | fold induction at 1 µM (FXN mRNA [1]): 1.06; fold induction at 5 µM (FXN mRNA [1]): 0.679; fold induction at 1 µM (FXN mRNA [2]): 1.08; fold induction at 5 µM (FXN mRNA [2]): 1.31
CN(C)c1ccc(C(=O)NCCCCCC(=O)NO)cc1 [CAY10398] | 0.6921 | 0.2339 | 0.5049 | 0.2106 | –
Anacardic Acid | 1.162 | 1.01 | 1.169 | 0.8356 | –
CCOC(=O)c1ccnc(C(=O)OCC)c1 [2,4-DPD] | 1.179 | 0.9456 | 0.877 | 0.7372 | –

Molecule | 3816 1 uM (FXN mRNA fold change) (FXN mRNA [1]; [3]) | 3816 5 uM (FXN mRNA fold change) (FXN mRNA [1]; [4]) | FXN mRNA fold change, 321B 1 uM (FXN mRNA [2]; [5]) | FXN mRNA fold change, 321B 5 uM (FXN mRNA [2]; [6]) | other results
O=C(CCCCCCC(=O)Nc1ccccc1)NO [SAHA] | 0.4857 | 0.0916 | 0.4256 | 0.1923 | –
CCOC(=O)CCNc1cc(N2CCc3ccccc3CC2)nc(-c2ccccn2)n1.Cl [GSK-J4 (hydrochloride)] | 0.927 | 0.8762 | 1.002 | 0.8744 | –
O=c1ncccn1[C@@H]1O[C@H](CO)[C@@H](O)[C@H]1O [Zebularine] | – | – | – | – | fold induction at 1 µM (FXN mRNA [1]; [3]): 1.07; fold induction at 5 µM (FXN mRNA [1]; [4]): 1.09; fold induction at 1 µM (FXN mRNA [2]; [5]): 1.07; fold induction at 5 µM (FXN mRNA [2]; [6]): 1.03
O=C(CCCCCCC(=O)Nc1ccc(I)cc1)NO [Oligo 4-iodo-SAHA] | 0.6878 | 0.1302 | 0.668 | 0.5901 | –
CN(C)CCCCC(=O)Nc1ccc(NC(=S)NC(=O)c2ccc(C(C)(C)C)cc2)cc1 [Tenovin-6] | – | – | 1.23 | 1.282 | –
O=C(NCc1ccccc1)c1c(/N=C/c2c(O)ccc3ccccc23)sc2c1CCCC2 [JGB1741] | 1.006 | 1.17 | 0.9963 | 0.7224 | –
CC(NC(=O)c1ccccc1/N=C/c1c(O)ccc2ccccc12)c1ccccc1 (centres unmarked) [Sirtinol] | – | – | – | – | fold induction at 1 µM (FXN mRNA [1]; [3]): 1.06; fold induction at 5 µM (FXN mRNA [1]; [4]): 0.92; fold induction at 1 µM (FXN mRNA [2]; [5]): 0.81; fold induction at 5 µM (FXN mRNA [2]; [6]): 1.02
Nc1ncnc2c1ncn2[C@@H]1O[C@H](C[C@@H](N)CC[C@H](N)C(=O)O)[C@@H](O)[C@H]1O [Sinefungin, reference compound] | – | – | – | – | fold induction at 1 µM (FXN mRNA [1]; [3]): 0.895; fold induction at 5 µM (FXN mRNA [1]; [4]): 0.862; fold induction at 1 µM (FXN mRNA [2]; [5]): 0.551; fold induction at 5 µM (FXN mRNA [2]; [6]): 0.821
Oxamflatin | 0.3506 | 0.108 | 0.5612 | 0.2391 | –
CC(=O)Nc1ccc(NC(=S)NC(=O)c2ccc(C(C)(C)C)cc2)cc1 [tenovin-1] | – | – | 1.444 | – | –
O=C(Nc1ccc2c(O)cc(S(=O)(=O)O)cc2c1)Nc1ccc2c(O)cc(S(=O)(=O)O)cc2c1 [AMI-1] | 0.5579 | 0.566 | – | 0.4073 | –
CCC(=O)CCCCC[C@@H]1NC(=O)[C@H]2CCCCN2C(=O)[C@H]([C@@H](C)CC)NC(=O)[C@H](Cc2cn(OC)c3ccccc23)NC1=O [Apicidin] | – | – | – | – | fold induction at 1 µM (FXN mRNA [1]): 0.0791; fold induction at 5 µM (FXN mRNA [1]): 0.435; fold induction at 1 µM (FXN mRNA [2]): 0.119; fold induction at 5 µM (FXN mRNA [2]): 0.397
Cc1ccc(NC(=O)CCCCCC(=O)Nc2ccccc2N)cc1 [Pimelic Diphenylamide 106] | 0.7457 | 0.4858 | 0.694 | 0.2094 | –
O=C(c1ccc(C(=O)N2CCC(N3CCCC3)CC2)c(Nc2ccccc2)c1)N1CCC(N2CCCC2)CC1 [UNC1215] | 0.6911 | 0.8743 | – | – | –
Nc1nc(OCc2cc(Br)cs2)c2[nH]cnc2n1 [Lomeguatrib] | – | – | – | – | fold induction at 1 µM (FXN mRNA [2]; [5]): 1.05; fold induction at 5 µM (FXN mRNA [2]; [6]): 1.28
